What was measured:
[1] = molecular target: Voltage-gated inwardly rectifying potassium channel KCNH2 (Homo sapiens, UniProt Q12809); type: functional
Adenosine receptor A2a = Adenosine receptor A2a (Homo sapiens, UniProt P29274)
[2] = molecular target: T1, Alpha-2C adrenergic receptor (Homo sapiens, UniProt P18825); type: functional
T1 sequence (P18825 whole entry): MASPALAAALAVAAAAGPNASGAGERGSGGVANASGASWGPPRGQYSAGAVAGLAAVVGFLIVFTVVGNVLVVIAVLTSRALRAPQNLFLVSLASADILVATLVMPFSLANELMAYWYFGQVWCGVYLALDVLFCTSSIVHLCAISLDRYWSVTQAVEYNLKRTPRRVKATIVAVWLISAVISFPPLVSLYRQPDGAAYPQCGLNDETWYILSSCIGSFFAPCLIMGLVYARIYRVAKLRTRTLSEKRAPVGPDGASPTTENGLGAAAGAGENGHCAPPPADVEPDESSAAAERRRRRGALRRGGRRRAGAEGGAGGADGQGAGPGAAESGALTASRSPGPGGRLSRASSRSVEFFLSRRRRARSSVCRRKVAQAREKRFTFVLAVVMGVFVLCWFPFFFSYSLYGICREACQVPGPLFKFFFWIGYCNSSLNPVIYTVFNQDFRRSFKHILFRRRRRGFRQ

Vasopressin V2 receptor = Vasopressin V2 receptor (Homo sapiens, UniProt P30518)
B2 bradykinin receptor = molecular target: T2, B2 bradykinin receptor (Homo sapiens, UniProt P30411)
T2 sequence (P30411 whole entry): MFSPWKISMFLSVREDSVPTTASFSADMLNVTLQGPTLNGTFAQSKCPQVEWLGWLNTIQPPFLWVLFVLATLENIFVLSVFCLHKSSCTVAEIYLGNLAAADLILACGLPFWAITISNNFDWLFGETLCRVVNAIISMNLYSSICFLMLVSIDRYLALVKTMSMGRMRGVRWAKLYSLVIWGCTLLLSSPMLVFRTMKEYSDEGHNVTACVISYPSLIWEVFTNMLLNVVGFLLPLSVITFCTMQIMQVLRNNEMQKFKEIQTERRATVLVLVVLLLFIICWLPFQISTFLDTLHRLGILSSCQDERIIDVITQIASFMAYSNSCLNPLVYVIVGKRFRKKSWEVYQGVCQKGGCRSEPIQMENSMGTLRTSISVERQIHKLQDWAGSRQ

[3] = molecular target: T3, Cholecystokinin receptor type A (Homo sapiens, UniProt P32238)
T3 sequence (P32238 whole entry): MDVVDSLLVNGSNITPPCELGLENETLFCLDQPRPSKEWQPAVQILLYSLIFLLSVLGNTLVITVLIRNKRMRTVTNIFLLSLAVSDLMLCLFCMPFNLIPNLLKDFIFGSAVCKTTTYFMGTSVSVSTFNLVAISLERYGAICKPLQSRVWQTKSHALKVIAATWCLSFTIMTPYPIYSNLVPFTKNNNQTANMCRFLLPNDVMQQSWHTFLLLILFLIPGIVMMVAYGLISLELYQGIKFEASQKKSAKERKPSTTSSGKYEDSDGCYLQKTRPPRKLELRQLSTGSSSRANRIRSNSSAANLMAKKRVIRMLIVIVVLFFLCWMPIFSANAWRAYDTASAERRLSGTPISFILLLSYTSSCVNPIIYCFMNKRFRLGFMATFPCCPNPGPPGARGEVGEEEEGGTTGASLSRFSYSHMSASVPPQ

[4] = molecular target: Neuronal acetylcholine receptor subunit alpha-4 (Homo sapiens, UniProt P43681)
[5] = molecular target: Growth hormone secretagogue receptor type 1 (Homo sapiens, UniProt Q92847)
Histamine H2 receptor = Histamine H2 receptor (Homo sapiens, UniProt P25021); type: functional, cell-based
[6] = molecular target: T4, 5-hydroxytryptamine receptor 1A (Homo sapiens, UniProt P08908); type: functional, cell-based
T4 sequence (P08908 whole entry): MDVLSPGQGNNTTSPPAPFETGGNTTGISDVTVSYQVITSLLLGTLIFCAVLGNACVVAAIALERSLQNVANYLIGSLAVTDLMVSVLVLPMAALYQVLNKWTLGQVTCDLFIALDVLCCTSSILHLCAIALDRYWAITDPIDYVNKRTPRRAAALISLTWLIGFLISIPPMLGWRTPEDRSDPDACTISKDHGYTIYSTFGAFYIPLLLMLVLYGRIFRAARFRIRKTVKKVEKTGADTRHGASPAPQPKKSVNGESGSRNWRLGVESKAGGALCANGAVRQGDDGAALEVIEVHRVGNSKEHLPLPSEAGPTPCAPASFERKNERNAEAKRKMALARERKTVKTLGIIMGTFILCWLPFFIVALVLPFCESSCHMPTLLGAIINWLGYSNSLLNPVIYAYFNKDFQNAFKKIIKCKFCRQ

[7] = molecular target: 3',5'-cyclic-AMP phosphodiesterase 4D (Homo sapiens, UniProt Q08499); type: functional
[8] = molecular target: T5, Amine oxidase [flavin-containing] A (Homo sapiens, UniProt P21397); type: functional
T5 sequence (P21397 whole entry): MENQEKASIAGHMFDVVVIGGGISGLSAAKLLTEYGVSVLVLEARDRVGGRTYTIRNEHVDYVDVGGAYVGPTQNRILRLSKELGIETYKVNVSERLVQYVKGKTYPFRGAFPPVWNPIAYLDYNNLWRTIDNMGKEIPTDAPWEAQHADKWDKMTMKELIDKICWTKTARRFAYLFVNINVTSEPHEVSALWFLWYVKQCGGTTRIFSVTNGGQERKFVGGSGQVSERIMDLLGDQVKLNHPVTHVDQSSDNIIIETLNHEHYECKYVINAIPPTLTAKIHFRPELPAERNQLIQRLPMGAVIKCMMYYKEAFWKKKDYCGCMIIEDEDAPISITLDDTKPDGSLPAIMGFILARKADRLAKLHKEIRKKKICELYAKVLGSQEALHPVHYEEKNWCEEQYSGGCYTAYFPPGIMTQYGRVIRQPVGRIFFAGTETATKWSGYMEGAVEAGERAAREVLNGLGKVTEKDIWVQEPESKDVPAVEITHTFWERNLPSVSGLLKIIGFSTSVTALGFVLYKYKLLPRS

[9] = molecular target: cGMP-inhibited 3',5'-cyclic phosphodiesterase 3A (Homo sapiens, UniProt Q14432); type: functional
D(3) dopamine receptor = D(3) dopamine receptor (Homo sapiens, UniProt P35462)
Further: assay procedure not described here.

3',5'-cyclic-AMP phosphodiesterase 4D, sequence (Q08499 whole entry): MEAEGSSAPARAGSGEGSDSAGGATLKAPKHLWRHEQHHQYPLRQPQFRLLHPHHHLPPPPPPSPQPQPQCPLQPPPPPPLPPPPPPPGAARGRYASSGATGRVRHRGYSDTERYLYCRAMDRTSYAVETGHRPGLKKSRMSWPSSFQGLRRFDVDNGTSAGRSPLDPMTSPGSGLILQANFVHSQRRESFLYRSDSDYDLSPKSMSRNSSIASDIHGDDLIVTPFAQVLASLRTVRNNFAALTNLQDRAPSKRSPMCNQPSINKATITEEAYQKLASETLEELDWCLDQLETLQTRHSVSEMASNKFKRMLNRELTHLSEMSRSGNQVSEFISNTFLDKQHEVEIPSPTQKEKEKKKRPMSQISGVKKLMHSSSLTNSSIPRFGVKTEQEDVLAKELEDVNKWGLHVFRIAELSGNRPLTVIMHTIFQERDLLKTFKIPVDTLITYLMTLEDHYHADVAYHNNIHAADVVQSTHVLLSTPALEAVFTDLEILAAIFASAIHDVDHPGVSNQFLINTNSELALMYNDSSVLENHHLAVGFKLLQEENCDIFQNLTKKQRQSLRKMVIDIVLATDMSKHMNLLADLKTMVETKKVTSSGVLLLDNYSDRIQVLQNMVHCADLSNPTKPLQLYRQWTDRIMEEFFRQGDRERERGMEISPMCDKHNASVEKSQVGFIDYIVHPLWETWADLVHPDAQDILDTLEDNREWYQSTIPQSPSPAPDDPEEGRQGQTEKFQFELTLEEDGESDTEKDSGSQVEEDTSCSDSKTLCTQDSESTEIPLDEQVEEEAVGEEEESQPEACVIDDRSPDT
Histamine H2 receptor, sequence (P25021 whole entry): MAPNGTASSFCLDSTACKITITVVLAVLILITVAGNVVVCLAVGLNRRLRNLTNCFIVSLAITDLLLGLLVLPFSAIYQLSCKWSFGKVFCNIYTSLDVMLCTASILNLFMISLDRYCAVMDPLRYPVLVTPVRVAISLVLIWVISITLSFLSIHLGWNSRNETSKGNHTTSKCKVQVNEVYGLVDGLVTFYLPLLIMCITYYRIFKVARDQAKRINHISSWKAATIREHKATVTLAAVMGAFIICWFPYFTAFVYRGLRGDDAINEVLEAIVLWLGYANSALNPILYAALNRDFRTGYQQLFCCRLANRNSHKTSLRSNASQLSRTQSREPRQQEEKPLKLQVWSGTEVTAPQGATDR
Adenosine receptor A2a, sequence (P29274 whole entry): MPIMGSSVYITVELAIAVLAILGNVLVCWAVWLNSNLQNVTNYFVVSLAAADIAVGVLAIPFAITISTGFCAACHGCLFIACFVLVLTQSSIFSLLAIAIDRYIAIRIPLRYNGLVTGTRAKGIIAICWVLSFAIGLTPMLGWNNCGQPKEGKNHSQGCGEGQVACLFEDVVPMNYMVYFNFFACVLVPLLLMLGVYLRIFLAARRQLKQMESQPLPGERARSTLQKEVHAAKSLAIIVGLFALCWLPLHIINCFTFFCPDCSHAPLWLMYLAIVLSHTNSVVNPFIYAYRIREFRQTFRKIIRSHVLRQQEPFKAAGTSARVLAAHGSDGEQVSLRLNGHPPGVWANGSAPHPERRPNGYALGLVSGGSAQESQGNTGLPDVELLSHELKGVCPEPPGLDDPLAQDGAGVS
Growth hormone secretagogue receptor type 1, sequence (Q92847 whole entry): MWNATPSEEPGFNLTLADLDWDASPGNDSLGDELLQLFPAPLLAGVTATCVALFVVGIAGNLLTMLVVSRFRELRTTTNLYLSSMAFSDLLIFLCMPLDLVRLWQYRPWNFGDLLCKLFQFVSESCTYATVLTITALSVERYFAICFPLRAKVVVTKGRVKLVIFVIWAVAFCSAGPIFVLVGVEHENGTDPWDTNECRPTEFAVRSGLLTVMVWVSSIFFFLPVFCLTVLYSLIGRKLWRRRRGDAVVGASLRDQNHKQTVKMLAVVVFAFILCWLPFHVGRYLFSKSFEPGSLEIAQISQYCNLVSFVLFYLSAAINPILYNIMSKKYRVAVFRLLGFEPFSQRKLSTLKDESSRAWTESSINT
cGMP-inhibited 3',5'-cyclic phosphodiesterase 3A, sequence (Q14432 whole entry): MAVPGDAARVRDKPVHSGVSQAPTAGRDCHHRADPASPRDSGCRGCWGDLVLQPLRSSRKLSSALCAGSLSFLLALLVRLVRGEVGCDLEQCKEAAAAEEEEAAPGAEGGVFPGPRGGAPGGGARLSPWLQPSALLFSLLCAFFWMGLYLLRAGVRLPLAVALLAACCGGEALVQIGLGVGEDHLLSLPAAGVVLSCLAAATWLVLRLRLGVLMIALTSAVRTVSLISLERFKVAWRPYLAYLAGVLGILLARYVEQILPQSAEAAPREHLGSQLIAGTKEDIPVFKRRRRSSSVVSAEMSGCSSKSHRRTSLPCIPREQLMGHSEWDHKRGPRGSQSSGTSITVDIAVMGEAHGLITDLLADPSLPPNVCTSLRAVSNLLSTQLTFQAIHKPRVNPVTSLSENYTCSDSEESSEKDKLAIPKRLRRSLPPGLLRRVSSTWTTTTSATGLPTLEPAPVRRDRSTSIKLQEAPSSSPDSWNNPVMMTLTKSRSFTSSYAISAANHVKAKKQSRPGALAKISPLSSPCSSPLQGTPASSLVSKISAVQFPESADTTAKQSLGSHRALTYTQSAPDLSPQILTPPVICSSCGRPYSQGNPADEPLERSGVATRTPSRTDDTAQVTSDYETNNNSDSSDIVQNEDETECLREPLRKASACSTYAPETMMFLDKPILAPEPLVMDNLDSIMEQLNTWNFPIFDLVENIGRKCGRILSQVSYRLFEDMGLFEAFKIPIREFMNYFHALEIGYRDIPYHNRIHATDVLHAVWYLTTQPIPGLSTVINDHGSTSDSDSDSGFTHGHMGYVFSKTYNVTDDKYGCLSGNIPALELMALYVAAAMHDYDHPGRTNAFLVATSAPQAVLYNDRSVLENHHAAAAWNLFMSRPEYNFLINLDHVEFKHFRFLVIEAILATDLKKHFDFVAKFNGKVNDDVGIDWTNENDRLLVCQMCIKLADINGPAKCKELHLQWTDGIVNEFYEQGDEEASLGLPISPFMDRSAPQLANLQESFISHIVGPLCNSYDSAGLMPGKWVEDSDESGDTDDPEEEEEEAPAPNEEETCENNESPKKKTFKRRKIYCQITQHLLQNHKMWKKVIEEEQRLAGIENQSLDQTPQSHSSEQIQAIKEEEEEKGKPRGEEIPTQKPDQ
Voltage-gated inwardly rectifying potassium channel KCNH2, sequence (Q12809 whole entry): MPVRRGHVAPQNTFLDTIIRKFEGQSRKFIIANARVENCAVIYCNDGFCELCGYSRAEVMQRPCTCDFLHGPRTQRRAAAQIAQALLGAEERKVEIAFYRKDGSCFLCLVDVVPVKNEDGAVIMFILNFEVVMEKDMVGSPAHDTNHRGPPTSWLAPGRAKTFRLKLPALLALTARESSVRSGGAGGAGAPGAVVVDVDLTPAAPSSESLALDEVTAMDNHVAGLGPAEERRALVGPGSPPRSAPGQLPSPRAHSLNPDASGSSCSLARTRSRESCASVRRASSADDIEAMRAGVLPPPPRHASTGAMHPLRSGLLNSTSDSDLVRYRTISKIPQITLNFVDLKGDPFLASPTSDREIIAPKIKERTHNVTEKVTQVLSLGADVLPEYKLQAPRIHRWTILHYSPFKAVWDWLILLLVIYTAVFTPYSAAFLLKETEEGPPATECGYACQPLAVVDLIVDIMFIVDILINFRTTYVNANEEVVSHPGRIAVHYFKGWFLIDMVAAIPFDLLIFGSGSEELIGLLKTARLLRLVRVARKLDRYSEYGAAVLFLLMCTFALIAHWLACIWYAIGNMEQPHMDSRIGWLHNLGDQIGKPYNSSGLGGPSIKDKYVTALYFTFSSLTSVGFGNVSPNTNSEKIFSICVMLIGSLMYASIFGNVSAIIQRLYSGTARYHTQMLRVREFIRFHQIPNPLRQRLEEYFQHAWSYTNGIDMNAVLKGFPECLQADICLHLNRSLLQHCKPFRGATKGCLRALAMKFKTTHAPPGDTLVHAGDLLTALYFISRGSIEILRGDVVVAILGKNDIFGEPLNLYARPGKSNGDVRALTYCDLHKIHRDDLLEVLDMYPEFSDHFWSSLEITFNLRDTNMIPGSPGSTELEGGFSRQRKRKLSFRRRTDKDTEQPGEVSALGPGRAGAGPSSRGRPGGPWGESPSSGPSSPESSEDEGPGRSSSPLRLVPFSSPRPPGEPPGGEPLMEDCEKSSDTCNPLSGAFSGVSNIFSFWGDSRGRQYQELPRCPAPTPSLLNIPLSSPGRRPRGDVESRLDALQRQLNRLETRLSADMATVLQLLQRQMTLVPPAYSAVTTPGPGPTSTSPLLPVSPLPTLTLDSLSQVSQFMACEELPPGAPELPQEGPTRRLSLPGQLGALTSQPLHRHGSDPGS
Neuronal acetylcholine receptor subunit alpha-4, sequence (P43681 whole entry): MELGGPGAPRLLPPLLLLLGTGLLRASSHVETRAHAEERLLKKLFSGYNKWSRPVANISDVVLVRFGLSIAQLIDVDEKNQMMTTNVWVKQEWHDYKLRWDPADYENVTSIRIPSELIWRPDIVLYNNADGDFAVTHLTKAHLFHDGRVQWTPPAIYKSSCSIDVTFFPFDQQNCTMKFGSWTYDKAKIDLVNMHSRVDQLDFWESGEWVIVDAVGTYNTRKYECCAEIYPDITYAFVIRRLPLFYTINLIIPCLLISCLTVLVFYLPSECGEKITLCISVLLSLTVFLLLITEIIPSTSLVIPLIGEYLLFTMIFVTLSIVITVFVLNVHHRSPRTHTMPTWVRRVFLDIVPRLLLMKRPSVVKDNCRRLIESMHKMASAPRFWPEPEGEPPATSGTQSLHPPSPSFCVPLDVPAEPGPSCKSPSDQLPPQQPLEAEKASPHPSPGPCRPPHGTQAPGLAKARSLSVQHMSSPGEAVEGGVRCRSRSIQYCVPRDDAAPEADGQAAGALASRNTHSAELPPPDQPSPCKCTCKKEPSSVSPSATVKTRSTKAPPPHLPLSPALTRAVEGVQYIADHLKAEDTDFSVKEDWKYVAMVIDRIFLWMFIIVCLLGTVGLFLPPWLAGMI

| SMILES | AC50 [1] [µM] | AC50 (Adenosine receptor A2a) [µM] | AC50 (Vasopressin V2 receptor) [µM] | AC50 (B2 bradykinin receptor) [µM] | AC50 [3] [µM] | AC50 [5] [µM] | AC50 [7] [µM] | AC50 [9] [µM] | also measured |
| --- | --- | --- | --- | --- | --- | --- | --- | --- | --- |
| Cc1ccccc1N1CCN(CCc2nnc3n2CCCC3)CC1 [DAPIPRAZOLE] | > 30 |  |  |  |  |  |  |  |  |
| COc1cc(N)c(Cl)cc1C(=O)NC1CCN(Cc2ccccc2)CC1 [CLEBOPRIDE] | 1.4 | > 30 | > 30 | > 30 | > 30 | > 30 | 2.9 | 7.7 | AC50 [2]: 2.1 µM; AC50 [4]: 24 µM; AC50 (Histamine H2 receptor): > 30 µM; AC50 [6]: > 30 µM; AC50 [8]: > 30 µM |
| C[C@H](Cc1cc2c(c(C(N)=O)c1)N(CCCO)CC2)NCCOc1ccccc1OCC(F)(F)F [SILODOSIN] | 12.8 |  |  |  |  |  |  |  |  |
| Cc1cnc(C(=O)NCCc2ccc(S(=O)(=O)NC(=O)NC3CCCCC3)cc2)cn1 [GLIPIZIDE] |  | > 30 | > 30 | > 30 | > 30 | > 30 | > 30 | > 30 | AC50 [2]: > 10 µM; AC50 [4]: > 10 µM; AC50 (Histamine H2 receptor): > 10 µM; AC50 [6]: > 10 µM; AC50 [8]: > 10 µM |
| CCCN[C@H]1CCc2nc(N)sc2C1 [PRAMIPEXOLE] | > 30 | > 30 | > 30 | > 30 | > 30 | > 30 | > 30 | > 30 | AC50 [2]: > 10 µM; AC50 [4]: > 10 µM; AC50 (Histamine H2 receptor): 0.73 µM; AC50 [6]: 16 µM; AC50 [8]: > 10 µM |
| CC(C)(C)NC[C@H](O)COc1cccc2c1CCCC2=O [LEVOBUNOLOL] | > 30 |  |  |  |  |  |  |  |  |
| COc1cc2c(cc1OC)CC(=O)N(CCCN(C)C[C@H]1Cc3cc(OC)c(OC)cc31)CC2 [IVABRADINE] | 30 |  |  |  |  |  |  |  |  |
| CC(N)Cc1ccc(O)cc1 (centres undefined) [HYDROXYAMPHETAMINE] | > 30 |  |  |  |  |  |  |  |  |
| COc1ccc(CN(CCN(C)C)c2ccccn2)cc1 [PYRILAMINE] | 9.59 |  |  |  |  |  |  |  |  |
| CC(C)N(CCNC(=O)CN1CCCC1=O)C(C)C | > 30 |  |  |  |  |  |  |  |  |
| Cc1cc(NC(=O)C2=C(O)c3ccccc3S(=O)(=O)N2C)no1 [ISOXICAM] | > 30 |  |  |  |  |  |  |  |  |
| O=C(O)c1cn(C2CC2)c2cc(N3CCNCC3)c(F)cc2c1=O [CIPROFLOXACIN] |  | > 30 | > 30 | > 30 | > 30 | > 30 | > 30 | > 30 |  |
| Cc1c(N(C)CS(=O)(=O)O)c(=O)n(-c2ccccc2)n1C [METAMIZOLE] | > 30 |  |  |  |  |  |  |  |  |
| NC(=O)OCC(O)COc1ccc(Cl)cc1 (centres undefined) [CHLORPHENESIN CARBAMATE] | > 30 |  |  |  |  |  |  |  |  |
| CN(C)CCCNc1c2ccccc2nc2cccc([N+](=O)[O-])c12 [NITRACRINE] | 0.46 | 17 | > 30 | > 30 | > 30 | > 30 | 21 | > 30 | AC50 [2]: 5.2 µM; AC50 [4]: > 30 µM; AC50 [6]: > 30 µM; AC50 [8]: 19 µM; AC50 (D(3) dopamine receptor): 9.8 µM |
| CCC(=O)O[C@]1(C(=O)CCl)[C@@H](C)C[C@H]2[C@@H]3C[C@H](F)C4=CC(=O)C=C[C@]4(C)[C@@]3(F)[C@@H](O)C[C@@]21C [HALOBETASOL PROPIONATE] | > 30 |  |  |  |  |  |  |  |  |

From ChEMBL document CHEMBL5291721, “A preclinical secondary pharmacology resource illuminates target-adverse drug reaction associations of marketed drugs” (Nat Commun, 2023)
